Marks after values point to notes of the source that are not given here.
System: rumen fluid

## CSCCC(N)C(=O)O (centres unmarked) [D, L Met, D,L Methionine]
  Supplemental Methionine Recovered: 12.25^c %
Continuous culture fermenters, .045 g/d supplement with 45 g/d soyhulls
  MOEFF (microbial efficiency): 9.11 grams of bacterial nitrogen per kilogram organic matter fermented

From patent US8062681B2, “Amino acid oligomer dietary supplement” (The Curators Of The University Of Missouri, priority 2006, dated 2011)
